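Test compounds were applied to cells in 96-well plates for 48 hours at 5 doses. GI50 is the concentration that inhibits growth by half.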 Activity calls are given as the source filed them. No stated cut-off is given here; in the data, active = GI50 up to about 1.1 µM and inactive = higher.
Tests used:
Assay in all cases: DTP human tumour cell line panel, 48 h
[1] = system: 786-0
[2] = system: A498
[3] = system: A549
[4] = system: ACHN
[5] = system: BT-549
[6] = system: CCRF-CEM
[7] = system: COLO 205
[8] = system: DU-145
[9] = system: EKVX
[10] = system: HCC 2998
[11] = system: HCT-116
[12] = system: HCT-15
[13] = system: HL-60
[14] = system: HOP-92
[15] = system: HT-29
[16] = system: Hs-578T
[17] = system: K562
[18] = system: KM12
[19] = system: LOX IMVI
[20] = system: M14
[21] = system: MCF7
[22] = system: MDA-MB-231
[23] = system: MDA-MB-435
[24] = system: MDA-N
[25] = system: MOLT-4
[26] = system: Malme-3M
[27] = system: NCI-H226
[28] = system: NCI-H23
[29] = system: NCI-H460
[30] = system: NCI-H522
[31] = system: NCI/ADR-RES
[32] = system: OVCAR-3
[33] = system: OVCAR-4
[34] = system: OVCAR-5
[35] = system: OVCAR-8
[36] = system: PC-3
[37] = system: RXF 393
[38] = system: SF-268
[39] = system: SF-295
[40] = system: SF-539
[41] = system: SK-MEL-28
[42] = system: SK-MEL-2
[43] = system: SK-MEL-5
[44] = system: SK-OV-3
[45] = system: SN12C
[46] = system: SNB-19
[47] = system: SNB-75
[48] = system: SR
[49] = system: SW-620
[50] = system: T47D
[51] = system: TK-10
[52] = system: U-251
[53] = system: UACC-257
[54] = system: UACC-62
[55] = system: UO-31
[56] = system: HOP-62
[57] = system: IGROV-1
[58] = system: CAKI-1
[59] = system: RPMI-8226

`C=CC(C)(C)c1cc([C@@H]2COc3cc(O)ccc3C2=O)c(O)c(OC)c1OC` was tested, and the GI50 [1] was 16 µM (inactive), the GI50 [2] was 16.9 µM (inactive) and the GI50 [3] was 15.8 µM (inactive). For the same compound, the GI50 [4] was 16.2 µM (inactive), the GI50 [5] was 10.2 µM (inactive) and the GI50 [6] was 16.6 µM (inactive). For the same compound, the GI50 [7] was 22 µM (inactive), the GI50 [8] was 14.8 µM (inactive) and the GI50 [9] was 12.1 µM (inactive). The GI50 [10] was 17.1 µM (inactive), the GI50 [11] was 11.8 µM (inactive) and the GI50 [12] was 14 µM. The GI50 [13] was 6.75 µM (inactive), the GI50 [14] was 6.1 µM (inactive) and the GI50 [15] was 20.5 µM (inactive). For the same compound, the GI50 [16] was 16.4 µM (inactive), the GI50 [17] was 9.66 µM (inactive) and the GI50 [18] was 13.2 µM (inactive). For the same compound, the GI50 [19] was 16.6 µM (inactive), the GI50 [20] was 15.5 µM (inactive) and the GI50 [21] was 14.8 µM (inactive). The GI50 [22] was 13.5 µM (inactive), the GI50 [23] was 6.44 µM (inactive) and the GI50 [24] was 7.6 µM (inactive). The GI50 [25] was 7.01 µM (inactive), the GI50 [26] was 10.8 µM (inactive) and the GI50 [27] was 16.5 µM (inactive). For the same compound, the GI50 [28] was 10.4 µM (inactive), the GI50 [29] was 17.4 µM (inactive) and the GI50 [30] was 4.25 µM (inactive). For the same compound, the GI50 [31] was 12.6 µM (inactive), the GI50 [32] was 10.5 µM (inactive) and the GI50 [33] was 3.94 µM (inactive). The GI50 [34] was 17.1 µM (inactive), the GI50 [35] was 17.3 µM (inactive) and the GI50 [36] was 12.9 µM (inactive). For the same compound, the GI50 [37] was 0.0173 µM (active), the GI50 [38] was 12.6 µM (inactive) and the GI50 [39] was 12.2 µM (inactive). For the same compound, the GI50 [40] was 18.8 µM (inactive), the GI50 [41] was 19.5 µM (inactive) and the GI50 [42] was 15.9 µM (inactive). For the same compound, the GI50 [43] was 10.4 µM (inactive), the GI50 [44] was 14.6 µM (inactive) and the GI50 [45] was 16.3 µM (inactive). For the same compound, the GI50 [46] was 13.5 µM (inactive), the GI50 [47] was 4.63 µM (inactive) and the GI50 [48] was 8.18 µM (inactive). For the same compound, the GI50 [49] was 31.6 µM (inactive), the GI50 [50] was 3.24 µM (inactive) and the GI50 [51] was 27.9 µM (inactive). The GI50 [52] was 13.5 µM (inactive), the GI50 [53] was 13 µM (inactive) and the GI50 [54] was 13 µM (inactive). For the same compound, the GI50 [55] was 10.9 µM (inactive).
In the case of `CCCNC(C#N)c1ccc(OCCCCCCCCCCOc2ccc(C(C#N)NCCC)cc2)cc1` (configuration not stated), the GI50 [1] is reported as > 100 µM (inactive), the GI50 [2] is reported as 23.1 µM (inactive) and the GI50 [3] is reported as 47 µM (inactive). For the same compound, the GI50 [4] was 83.9 µM (inactive), the GI50 [5] was 75 µM (inactive) and the GI50 [6] was 15.3 µM (inactive). The GI50 [7] was > 100 µM (inactive), the GI50 [8] was 49 µM (inactive) and the GI50 [9] was 60.5 µM (inactive). The GI50 [10] was > 100 µM (inactive), the GI50 [11] was 31.9 µM (inactive) and the GI50 [12] was 47.3 µM. The GI50 [13] was 17.3 µM (inactive), the GI50 [56] was 42.8 µM (inactive) and the GI50 [14] was 32.4 µM (inactive). For the same compound, the GI50 [15] was 51.1 µM (inactive), the GI50 [16] was 37.7 µM (inactive) and the GI50 [57] was 54.6 µM (inactive). For the same compound, the GI50 [17] was 23.6 µM (inactive), the GI50 [18] was 64.7 µM (inactive) and the GI50 [19] was 14.8 µM (inactive). The GI50 [20] was 40.4 µM (inactive), the GI50 [21] was 35.2 µM (inactive) and the GI50 [22] was > 100 µM (inactive). The GI50 [23] was 46.3 µM (inactive), the GI50 [24] was 29.4 µM (inactive) and the GI50 [25] was 17.1 µM (inactive). For the same compound, the GI50 [26] was 64 µM (inactive), the GI50 [27] was 30.8 µM (inactive) and the GI50 [28] was 51.3 µM (inactive). The GI50 [29] was 50.5 µM (inactive), the GI50 [30] was 72.6 µM (inactive) and the GI50 [31] was 56.8 µM (inactive). For the same compound, the GI50 [32] was 30.5 µM (inactive), the GI50 [33] was 34.5 µM (inactive) and the GI50 [34] was 69.8 µM (inactive). The GI50 [35] was 30.9 µM (inactive), the GI50 [36] was 30.8 µM (inactive) and the GI50 [37] was 23.9 µM (inactive). For the same compound, the GI50 [38] was 61.8 µM (inactive), the GI50 [39] was 31.3 µM (inactive) and the GI50 [40] was 55.2 µM (inactive). The GI50 [41] was > 100 µM (inactive), the GI50 [42] was 38.5 µM (inactive) and the GI50 [43] was 33.3 µM (inactive). For the same compound, the GI50 [44] was 64 µM (inactive), the GI50 [45] was 68.9 µM (inactive) and the GI50 [46] was 33.2 µM (inactive). For the same compound, the GI50 [47] was 32.8 µM (inactive), the GI50 [48] was 25.6 µM (inactive) and the GI50 [49] was 41.3 µM (inactive). For the same compound, the GI50 [50] was 64 µM (inactive), the GI50 [51] was 29.2 µM (inactive) and the GI50 [52] was 20.9 µM (inactive). The GI50 [53] was 48.5 µM (inactive), the GI50 [54] was 61.2 µM (inactive) and the GI50 [55] was 51.8 µM (inactive).
In the case of `CN(C)Cc1cc(C(=O)/C=C/c2ccccc2Cl)cc(CN(C)C)c1O`, the GI50 [1] is reported as 7.36 µM (inactive), the GI50 [2] is reported as 12.9 µM (inactive) and the GI50 [3] is reported as 14.9 µM (inactive). The GI50 [4] was 4.45 µM (inactive), the GI50 [5] was 8.51 µM (inactive) and the GI50 [58] was 3.56 µM (inactive). The GI50 [6] was 3.4 µM (inactive), the GI50 [7] was 4.23 µM (inactive) and the GI50 [8] was 12.3 µM (inactive). For the same compound, the GI50 [9] was 14.7 µM (inactive), the GI50 [10] was 20.2 µM (inactive) and the GI50 [11] was 5.42 µM (inactive). For the same compound, the GI50 [12] was 14.7 µM, the GI50 [13] was 4.3 µM (inactive) and the GI50 [56] was 8.15 µM (inactive). The GI50 [14] was 18.1 µM (inactive), the GI50 [15] was 3.13 µM (inactive) and the GI50 [16] was 18.3 µM (inactive). For the same compound, the GI50 [57] was 13.6 µM (inactive), the GI50 [17] was 4.79 µM (inactive) and the GI50 [18] was 7.8 µM (inactive). For the same compound, the GI50 [19] was 3.33 µM (inactive), the GI50 [20] was 11.2 µM (inactive) and the GI50 [21] was 9.66 µM (inactive). For the same compound, the GI50 [22] was 12.2 µM (inactive), the GI50 [23] was 13.5 µM (inactive) and the GI50 [24] was 13 µM (inactive). The GI50 [25] was 10.9 µM (inactive), the GI50 [26] was 11 µM (inactive) and the GI50 [27] was 24.3 µM (inactive). For the same compound, the GI50 [28] was 14.5 µM (inactive), the GI50 [29] was 4.6 µM (inactive) and the GI50 [30] was 3.93 µM (inactive). For the same compound, the GI50 [31] was 12.8 µM (inactive), the GI50 [32] was 7.93 µM (inactive) and the GI50 [34] was 23.1 µM (inactive). The GI50 [35] was 10.1 µM (inactive), the GI50 [36] was 13.2 µM (inactive) and the GI50 [59] was 13.8 µM (inactive). The GI50 [37] was 17.1 µM (inactive), the GI50 [38] was 15.9 µM (inactive) and the GI50 [39] was 14.6 µM (inactive). The GI50 [40] was 15.5 µM (inactive), the GI50 [41] was 14.7 µM (inactive) and the GI50 [43] was 11.8 µM (inactive). The GI50 [45] was 9.16 µM (inactive), the GI50 [46] was 13.9 µM (inactive) and the GI50 [47] was 5.51 µM (inactive). The GI50 [48] was 5.6 µM (inactive), the GI50 [49] was 4.86 µM (inactive) and the GI50 [50] was > 10 µM (inactive). For the same compound, the GI50 [51] was 19.7 µM (inactive), the GI50 [52] was 13.8 µM (inactive) and the GI50 [53] was 15.4 µM (inactive). For the same compound, the GI50 [55] was 10.6 µM (inactive).

Reference: ChEMBL document CHEMBL1201862, “PubChem BioAssay data set” (2004)
